We go through 99 molecules from ChEMBL document CHEMBL3507680, “University of Dundee, Gates Library screen for HepG2 cell viability”.

A short description of this series: Human HepG2 cell viability assay in 384 well format. Also noted: dose 125 nL, time 70.5 hour; cytotoxicity at 70.5 h: concentration not given beside the values. The following applies: HepG2 cells, read-out: Inhibition. Format: toxicity, cell-based.
`COc1ccccc1-c1nnc2n1NC(N)=C(C#N)S2`: the cytotoxicity at 70.5 h is -28.8%.
In the case of `CCCc1nc2c(c(C)c(C)n2Cc2cccnc2)c(N)c1CC`, the cytotoxicity at 70.5 h stood at 54.7%.
To `O=C(c1nc(Cc2c[nH]c3ccccc23)no1)N1CCCC1` belongs -3.26%; to `Cc1ccnc(SCC(=O)Nc2csc3nc(=O)c(C)nn23)n1`, 7.67%; to `O=C(O)CNC(=O)Cc1csc(-c2ccccc2F)n1`, 18.6%.
Turning to `O=C(CNC(=O)N1CCc2c([nH]c3ccc(Cl)cc23)C1)NCCCO`, the cytotoxicity at 70.5 h is -18.9%.
The result for `O=C1CCCC2=C1C(c1ccccc1Cl)Nc1nonc1N2` (centres undefined) reads 0.0122%; that for `COCCNC(=O)c1nc(NS(=O)(=O)c2ccccc2)sc1C`, -18.8%.
For the molecule `COc1ccccc1CNc1ccc2nncn2n1`, the cytotoxicity at 70.5 h is -11.2%.
Take `COC(=O)CCNC(=O)c1nc(NS(=O)(=O)c2ccccc2)sc1C`: the cytotoxicity at 70.5 h is -23%.
For `CC(=O)Nc1ccc(OCc2noc(C(=O)N3CCCCCC3)n2)cc1`, the cytotoxicity at 70.5 h was -21.4%.
As to `N#CC1=C(N)Nn2c(nnc2-c2ccccc2Br)S1`, the cytotoxicity at 70.5 h was -19%.
Consider `CC(C)NC(=O)CCC(=O)N1CCC(c2noc3cc(F)ccc23)CC1`, for which the cytotoxicity at 70.5 h was -17.2%.
In the case of `CN1C(=O)C2(CC(=O)Nc3c2cnn3C(C)(C)C)c2ccccc21` (centres undefined), the cytotoxicity at 70.5 h is -18.7%.
The result for `O=C1CCCC2=C1C(c1cc(Cl)ccc1F)Nc1nonc1N2` (centres undefined) reads 9.69%; that for `CCOC(=O)c1nc(COc2ccc(CC(N)=O)cc2)no1`, -10.5%.
On to `COCCNC(=O)Cc1cnc(-n2cccc2)s1`, for which the cytotoxicity at 70.5 h was -22.5%.
The result for `Cc1occc1-c1nnc2n1NC(N)=C(C#N)S2` reads -22.4%.
The result for `N#Cc1nc(COc2ccc3c(c2)OCO3)oc1N1CCCC1` reads -26.5%.
Consider `CN1C(=O)C2(CC(=O)Nc3[nH]ncc32)c2ccc(F)cc21` (centres undefined), for which the cytotoxicity at 70.5 h was -15.5%.
In the case of `C[C@@H](O)CNC(=O)c1nc(CC(=O)Nc2cccc(C(F)(F)F)c2)no1`, the cytotoxicity at 70.5 h is -23.7%.
In the case of `Cc1occc(=O)c1OCc1noc(C(=O)NC(C)C)n1`, the cytotoxicity at 70.5 h was -15.1%.
Turning to `Cc1cccc(N2Cc3nc(=O)n(Cc4cccc(F)c4)n3C2=O)c1`, the cytotoxicity at 70.5 h was -18%.
In the case of `Cc1nc2oc(C(=O)N3CCOCC3)c(N)c2c2c1CCCC2`, the cytotoxicity at 70.5 h is -17.3%.
Consider `COc1cc2c(cc1OC)C(=O)C(Sc1nnc(C)o1)C2` (centres undefined), for which the cytotoxicity at 70.5 h was -15.9%.
For `COC(=O)CCC(=O)N(Cc1ccc2cc[nH]c2c1)C1CC1`, the cytotoxicity at 70.5 h was -17.3%.
To `NC(=O)Cc1ccc(OCc2noc(C(=O)N3CCCC3)n2)cc1` belongs -23.4%; to `O=S1(=O)CCC(S(=O)(=O)c2cccc(S(=O)(=O)N3CCOCC3)c2)C1` (centres undefined), -8.35%; to `Cc1ccc2c(c1)C1(CC(=O)Nc3[nH]ncc31)C(=O)N2C` (centres undefined), -21.9%.
`CC(C)NC(=O)Cn1ccc2c(Cl)cccc21`: the cytotoxicity at 70.5 h was -19%.
The result for `Cc1occc(=O)c1OCc1noc(C(=O)NCC(C)C)n1` reads -16.8%; that for `N#Cc1nc(COc2ccc3c(c2)OCO3)oc1N1CCCCCC1`, -21.8%; that for `Cc1cc(C)n(Cc2ccc(-c3noc(C(=O)NC[C@@H](C)O)n3)cc2)n1`, -14.8%.
On to `CC[C@@H](C)[C@H](NC(=O)Cn1ccc2c(Cl)cccc21)C(=O)O`, for which the cytotoxicity at 70.5 h was -13.9%.
Regarding `CN1C(=O)COc2ccc(C(=O)Cn3cnc4ccsc4c3=O)cc21`, the cytotoxicity at 70.5 h came to 17.1%.
Consider `CCC(C)NC(=O)c1snnc1-c1ccc(OC)cc1` (centres undefined), for which the cytotoxicity at 70.5 h amounted to 0.408%.
`O=C(Cc1csc(-c2ccccc2F)n1)NCc1cccc(C(=O)O)c1`: the cytotoxicity at 70.5 h was -17.7%.
For `O=C(Nc1ccccn1)C1(n2cnnn2)CCCCC1`, the cytotoxicity at 70.5 h was -21.1%.
To `O=C1N(c2cccc(F)c2)Cc2nc(=O)n(Cc3ccc(Cl)cc3)n21` belongs -12.7%; to `O=C1N(c2cccc(F)c2)Cc2nc(=O)n(Cc3ccccc3Cl)n21`, -18.7%.
To `CC(C)CCNC(=O)c1ccc(-n2cnc3ccccc3c2=O)cc1` belongs -27.3%.
As for `COc1cccc(-c2nc(C)c(C(=O)NCCC(=O)O)s2)c1`, the cytotoxicity at 70.5 h is -15.8%.
Turning to `CCc1c(C)sc2c1c(N)nc(=O)n2CCN(C)C`, the cytotoxicity at 70.5 h was determined as 18.9%.
Take `CC(=O)c1ccc(N2CCN(C(=O)NCc3cc[nH]n3)CC2)cc1`: the cytotoxicity at 70.5 h is -2.83%.
As for `CC(C)(C)c1ncc(C(=O)NCCNC(=O)Cc2ccccc2)s1`, the cytotoxicity at 70.5 h was -5.68%.
Regarding `CC(C)(C)c1ncc(C(=O)NCCNC(=O)c2cccs2)s1`, the cytotoxicity at 70.5 h was found to be 12.5%.
Consider `COc1c(CNC2CCC(O)CC2)c(C(C)C)nn1C` (centres undefined), for which the cytotoxicity at 70.5 h was -5.04%.
To `COc1c(CNC2CCN(C(=O)C(C)C)CC2)c(C(C)C)nn1C` belongs 19.1%; to `O=C(NCc1cc[nH]n1)N1CCN(c2ncccn2)CC1`, -8.57%; to `Cc1ncc2c(n1)CN(CC(=O)Nc1cccnc1)CC2`, 17.5%.
For the molecule `Cc1ccc(F)cc1NS(=O)(=O)c1cc2c(c(C(=O)O)c1)OCCO2`, the cytotoxicity at 70.5 h was -5.92%.
The result for `Cc1ccc(C)c(NS(=O)(=O)c2cc3c(c(C(=O)O)c2)OCCO3)c1` reads -8.38%; that for `O=C(O)c1cc(S(=O)(=O)Nc2cccc(F)c2F)cc2c1OCCO2`, -0.966%.
With `Cc1cc(C(=O)N2CCCN(Cc3nccn3C)CC2)no1`, the cytotoxicity at 70.5 h was 12.6%.
`Cc1noc(C)c1CCC(=O)N1CCCC(n2cccn2)C1` (centres undefined): the cytotoxicity at 70.5 h is -0.943%.
On to `CNC(=O)c1ccc(C(=O)N2CCCC(n3ccnc3C)C2)cn1` (centres undefined), for which the cytotoxicity at 70.5 h is -3.51%.
As for `CC(C)CN1CC(C(=O)NCCOc2ccc3c(c2)OCO3)CC1=O` (centres undefined), the cytotoxicity at 70.5 h came out at 3.51%.
To `O=S1(=O)CCC(N(Cc2nc3ccccc3o2)Cc2cccs2)C1` (centres undefined) belongs 19.2%; to `CSc1nccn1-c1cccc(C(=O)NCCC(=O)NC(C)C)c1`, -3.09%; to `Cc1noc(C)c1CN(Cc1cccs1)C1CCS(=O)(=O)C1` (centres undefined), 15.7%.
Take `O=C(CCCOc1ccc(F)cc1F)N1CCCC(n2cccn2)C1` (centres undefined): the cytotoxicity at 70.5 h is -3.24%.
The result for `Cc1cnn(CC2CN(c3ccc(C#N)cn3)CCO2)c1` (centres undefined) reads 23.6%.
As to `NC(=O)NCC1CCCCN1C(=O)c1cccc(Cl)c1` (centres undefined), the cytotoxicity at 70.5 h is -4.19%.
As to `O=C(CCCc1ccccc1)N1CCC(Nc2cccnn2)CC1`, the cytotoxicity at 70.5 h was -4.29%.
In the case of `Cc1ccc(CCC(=O)N2CCC(Nc3cccnn3)CC2)cc1`, the cytotoxicity at 70.5 h was 1.83%.
On to `Cc1nccn1C1CCCN(C(=O)c2ccc3cc[nH]c3c2)C1` (centres undefined), for which the cytotoxicity at 70.5 h is -1.7%.
To `CCn1cc(NC(=O)C2CCN(CC(=O)NC(C)(C)CC)CC2)cn1` belongs -2.19%.
Turning to `Cc1nccn1C1CCCN(C(=O)c2ccc3c(c2)OCCCO3)C1` (centres undefined), the cytotoxicity at 70.5 h was -0.919%.
Consider `Cc1ccc(NC2CCN(C(=O)Cc3cccs3)CC2)nn1`, for which the cytotoxicity at 70.5 h is 2.71%.
Regarding `CN(CC(=O)NC1CCOCC1)C1CCCN(c2cccnn2)C1` (centres undefined), the cytotoxicity at 70.5 h was -2.74%.
Turning to `Cc1cc(C)n(C2CCCN(C(=O)c3ccc(N(C)C)nc3)C2)n1` (centres undefined), the cytotoxicity at 70.5 h was -2.57%.
As to `Cc1noc(Cl)c1CCC(=O)N1CCC(Nc2cccnn2)CC1`, the cytotoxicity at 70.5 h is -0.162%.
In the case of `CCCc1n[nH]c(C2CN(C(=O)c3cccc4[nH]ncc34)CCO2)n1` (centres undefined), the cytotoxicity at 70.5 h is -3.81%.
For the molecule `O=C(c1csc(-c2nnc[nH]2)n1)N1CCCCC1Cn1cccn1` (centres undefined), the cytotoxicity at 70.5 h worked out at 1.45%.
Take `O=S1(=O)CCC(N(Cc2nc(-c3ccccn3)no2)Cc2cccs2)C1` (centres undefined): the cytotoxicity at 70.5 h is -4.77%.
As for `O=C(c1cc(-c2cccs2)on1)N1CCCCC1Cn1cccn1` (centres undefined), the cytotoxicity at 70.5 h is -8.41%.
For the molecule `Cc1ccc(NC2CCN(C(=O)CCCc3cccs3)CC2)nn1`, the cytotoxicity at 70.5 h was -2.88%.
As to `Cc1oc(-c2cccs2)nc1C(=O)N1CCCC1Cn1cccn1` (centres undefined), the cytotoxicity at 70.5 h was -6.8%.
On to `CCCc1n[nH]c(C2CN(C(=O)c3cncnc3C)CCO2)n1` (centres undefined), for which the cytotoxicity at 70.5 h is 3.13%.
To `CCc1nc2n(n1)CC(NCc1nc(Cc3ccccc3)no1)CC2` (centres undefined) belongs 25.4%.
To `Cc1noc(CN(Cc2cccs2)C2CCS(=O)(=O)C2)n1` (centres undefined) belongs -3.18%; to `O=C(CCOc1cccc(F)c1)N1CCCC1Cn1cccn1` (centres undefined), -0.422%.
For `O=C(CCCOc1ccccc1)N1CCCC1Cn1cccn1` (centres undefined), the cytotoxicity at 70.5 h is -3.8%.
Regarding `Cc1cn2c(n1)CCC(NC(=O)CCCn1cncn1)C2` (centres undefined), the cytotoxicity at 70.5 h was 15.9%.
For the molecule `CCc1cnc(CN(C(C)=O)C2CCN(CCc3ccccc3)C2)o1` (centres undefined), the cytotoxicity at 70.5 h is 18.3%.
On to `CCc1nnc2n1CCN(C(=O)CN(C)C1CC1)C2`, for which the cytotoxicity at 70.5 h is -0.0438%.
Regarding `CNS(=O)(=O)c1ccc(C(=O)N2CCCCC2c2ccc(C)cc2)o1` (centres undefined), the cytotoxicity at 70.5 h is -2.53%.
Consider `COCCN1CCC(CNC(=O)C2(c3ccccc3)CCC2)C1` (centres undefined), for which the cytotoxicity at 70.5 h was -3.28%.
`COCCN1CCC(CNC(=O)C2(c3ccc(Br)cc3)CCCC2)C1` (centres undefined): the cytotoxicity at 70.5 h was -0.291%.
The result for `Cc1ccc(C2=CCN(C(=O)C3CCN(C)C(=O)C3)CC2)cc1` (centres undefined) reads -6.32%; that for `COc1ccc(C2=CCN(C(=O)C3CCCN(C(C)=O)C3)CC2)cc1` (centres undefined), -1.69%; that for `CCc1cnc(CN(C(C)=O)C2CCN(CCN3CCCCC3)C2)o1` (centres undefined), -3.61%.
Take `Cc1ccccc1C1CCCN1Cc1ccc(S(=O)(=O)N(C)C)o1` (centres undefined): the cytotoxicity at 70.5 h is -2.87%.
Consider `CN(C)C(=O)CCCS(=O)(=O)Cc1cc(Cl)c2c(c1)OCO2`, for which the cytotoxicity at 70.5 h is -2.84%.
As to `CC(C)c1nn(C)c(N(C)C)c1CNCCC(=O)NC1CCCCC1`, the cytotoxicity at 70.5 h is 37.6%.
Take `Cc1nn(C)c(N(C)C)c1CNCCC(=O)NC1CCCC1`: the cytotoxicity at 70.5 h amounted to 3.14%.
In the case of `Cc1nn(C)c(N(C)C)c1CNCCC(=O)NC1CCCCC1`, the cytotoxicity at 70.5 h was -0.221%.
On to `CNS(=O)(=O)c1ccc(C(=O)N2CCCC2c2ccccc2C)o1` (centres undefined), for which the cytotoxicity at 70.5 h was -1.59%.
As for `COc1c(CNCCC(=O)NC2CCCCC2)c(C(C)C)nn1C`, the cytotoxicity at 70.5 h was -0.685%.
